Entries after “also recorded” stand apart in the source; their conditions may differ.
Experiments:
[1] = test system: peripheral nerve injury sheep model; test: Mechanical hyperalgesia (pin-prick test) after intrathecal morphine in the peripheral nerve injury sheep model; format: in vivo
Procedure: Adult female merino sheep weighing 40-60 kg were used to produce the peripheral nerve injury sheep model. All experimental procedures were approved by the Institutional of Animal Care and Use Committee at the University of Texas Medical Branch and were in accordance with the guidelines of National Institutes of Health and of the International Association for the study of Pain (IASP).
Sheep were fasted for 24 hours prior to surgery. General anesthesia was given followed by 600 mg IM injection of ketamine. An intravenous line was placed in the external jugular and the sheep received an additional 200 mg of ketamine IV and a prophylactic dose of cefazolin 1 g IV. After intubation, the sheep were maintained on 2% isoflurane in oxygen and mechanically ventilated. The sheep received IV fluids (0.9% Normal Saline). Body temperature was maintained with a circulating water pad. Oxygen saturation was monitored and maintained between 98-100%. Heart rate and blood pressure remained within normal limits and required no adjustments. Sheep was positioned prone with hind limbs positioned cephalad beside the abdomen. A positioning pillow was placed under the chest, raising the head and chest and allowing a lordotic curve of the lumbar spine. The sheep was loosely secured to the operating table. The lumbrosacral area was sterilely prepped with betadine and draped. A vertical midline incision was made over the L-6 to S-2 vertebrae. The spinous processes of L6 and S1 were partially resected to allow greater exposure of the dura. A purse string of 7-O nylon was placed in the dura, the dura carefully lifted and nicked. A RACZ epidural catheter (16 Ga×36) catheter with snaplock catheter/syringe adapter was placed into the subarachnoid space and advanced until the 10 cm mark was at the opening of the dura. Once CSF flow through the catheter was confirmed, the dura was pulled close to the catheter with the purse string and the catheter was secured to the muscle fascia. The dura, muscle fascia, and skin were closed. The catheter was looped and secured subcutaneously. The catheter was then tunneled and secured to the skin of the sheep with suture. The sheep was allowed 5 days to recover and was tested for neurologic deficits. Animals with neurologic deficits were sacrificed.
(§1) After the placement of an intrathecal catheter and the documentation of a lack of any neurological deficits, common peroneal nerve injury surgery was performed. As described previously, the sheep was premedicated with intramuscular ketamine, intubated and mechanically ventilated. The sheep was positioned laterally and the hind leg was sterilely prepared and draped. A vertical incision was made mid-thigh. The semimembranous and semitendinous muscle bellies were separated to expose the common peroneal nerve and tibial nerve. The common peroneal nerve was ligated with 2-0 silk suture and cut distally. A 1-cm segment was removed from the distal stump to prevent re-growth. Fascia and skin were closed.
With the sheep in the stanchion, a pin-prick test was performed using a 300 gram von-frey filament. […] The duration of hindlimb withdrawal was recorded^14.
Three weeks after peroneal nerve injury, the analgesic effect of morphine was measured. […]
Baseline withdrawal thresholds to mechanical stimulation were measured prior to morphine administration and at ten-minute intervals post-morphine. The anti-nociceptive effect of morphine time course was determined by measuring the pin-prick frequency every 10-min after intrathecal administration. […]

[2] = test system: peripheral nerve injury sheep model; test: Mechanical allodynia (hindlimb withdrawal threshold, von Frey filaments) after intrathecal morphine in the peripheral nerve injury sheep model; format: in vivo; conditions: intrathecal morphine sulfate 50 to 1200 micrograms, three weeks after peripheral nerve injury
Procedure: as §1, with “closed. […]” for “closed.”
Based on the response to the first von-frey stimuli presented the following stimulus was increased if a negative or null response or decreased if there was a positive response. The 50% response threshold was calculated using the formula: 50% g threshold=(10^[x^f^+κδ]/10,000. The 50% withdrawal thresholds to von-frey filaments were used to assess the behavior change. To avoid inter-observer variability, one investigator did the majority of behavioral experiments. Additionally, each sheep did only one behavioral test per day.
Baseline withdrawal thresholds to mechanical stimulation were measured prior to morphine administration and at ten-minute intervals post-morphine. […]

[3] = 200 micrograms intrathecal, measured by pin prick
[4] = intrathecal 2 to 1200 micrograms, three weeks after peroneal nerve injury, 30 minutes after drug delivery

## CN1CC[C@]23c4c5ccc(O)c4O[C@H]2[C@@H](O)C=C[C@H]3[C@H]1C5 [morphine]
[1]; [3]
  duration of analgesia: > 120 min
  time of peak analgesia: 30 min
[1]; [4]
  reduction in efficacy, ipsilateral compared to contralateral dose response curve: approximately 4 fold
  reduction in potency, ipsilateral compared to contralateral dose response curve: approximately 2 fold
[1]; intrathecal, ipsilateral (nerve injured) vs contralateral (non-injured) hindlimb
  analgesic effect after nerve injury / injured versus contralateral hindlimb (in words): significantly reduced; also recorded: much less analgesia; also recorded: more potency on the contralateral
[2]
  hindlimb withdrawal threshold, reversal (contralateral hindlimb): completely reversed
  increase of hindlimb withdrawal threshold on the ipsilateral hindlimb: 36%

Source: US8212104B2, “Model of experimentally induced chronic pain and uses thereof” (The Board of Regents of the University of Texas System, priority 2008, dated 2012)
